Where “and” joins values, the source holds several entries; their conditions need not be identical. Identical values can stand only once.
Experiments:
neutrophils = experiment: Neutrophil counts in healthy volunteers after single subcutaneous administration; format: in vivo, human; details: α-IFN 0, muramyl peptide 100 μg/Kg alone; highest value during the 24 hours after administration
Experimental: (§1) They receive subcutaneously the mixtures described in the following table I of murabutide (MUB) or murametide (MUM) with α-interferon 2a (α-IFN).
The subjects are monitored during the three days following the administration of the IFN and/or the muramyl peptides, and all of the tests and investigations necessary to carry out a phase I test are effected.
Haematological analysis with white corpuscle counts at the time of injection and then 6 hours, 12 hours, 24 hours, 36 hours, 60 hours and 72 hours after injection.
The leucocyte counts are carried out in a COULTER COUNTER automatic cell counter.
Neutrophils are the cells which are the most affected by leucopenic treatments. It is the reduction in the amount of neutrophils which is responsible for the reduction in the non-specific immune defences in subjects subjected to radiotherapy or to cytotoxic and/or myelotoxic chemotherapy. To make reading easier, only the neutrophil counts made at the time when their variation is at its greatest have been given.

IL-6 [1] = experiment: IL-6 test (Elisa) on sera of healthy volunteers; format: in vivo, human; details: α-IFN 0, muramyl peptide 100 μg/Kg alone; 6 hours after administration
Experimental: as §1
(§2) Blood samples are taken before injection and 6 hours, 24 hours and 48 hours after injection, in order to collect the serum necessary to carry out the tests for neopterine, interleukin 1, 6 and 8, G-CSF, IL-1 RA and α-TNF.
(§3) The blood samples for the serum tests are centrifuged at 4° C. and 3000 rpm for 10' immediately after they are taken. The sera are stored at -20° C. The leucocyte counts and the neopterine and cytokine tests are carried out using commercial kits.
The test is carried out using an Elisa test kit (British Biotechnology Products Ltd.) on sera taken at time 0 and after 6 hours. The figures express the pg/ml, the normal values are less than 6 pg.

sTNFR2 = experiment: In vitro incubation of blood of healthy volunteers: sTNFR2 secreted; format: cell-based, human
Experimental: (§4) Blood taken from healthy volunteers was incubated in vitro with different combinations associating murabutide and α-IFN. The murabutide was used at a dose of 20 μg/ml and the IFN was used at a dose of from 30 to 100 μ/ml. At different times in the course of incubation, blood samples are taken and the mononucleated cells are separated on a Ficoll gradient. The total RNA is extracted, purified and separated by electrophoresis. It is then analysed in accordance with the Schreck method in order to determine by a hybridisation technique what genes were induced by the treatment.
(§5) Studies similar to those described above were carried out in order to study the murabutide-GM-CSF association. These studies were carried out in vitro on the cells of healthy volunteers after incubation with immunomodulators alone or in association.
(§6) Specific cytokines were sought and measured in the supernatants (see Table XIII).

[2] = tested on: IL-1 receptor antagonist (IL-1 RA); experiment: IL-1 receptor antagonist (IL-1 RA) test on sera of healthy volunteers; format: in vivo, human; details: α-IFN 0, muramyl peptide 100 μg/Kg alone; 6 hours after administration
Experimental: as §1, §2, §3

Swiss mice = experiment: Endotoxic shock (D-galactosamine + LPS) model in Swiss mice; format: in vivo; details: for Average % mortality / Number of dead mice per total tested, Exp. 1 / Number of dead mice per total tested, Exp. 2 / Number of dead mice per total tested, Exp. 3: intravenously, mortality after 48 hours
Experimental: The administration of D-galactosamine with lipopolysaccharide (LPS) to Swiss mice induces endotoxic shock with at least 70% mortality in 24-48 hours. The prophylactic or therapeutic effect of murabutide was studied in this model in order to evaluate its anti-inflammatory activity when it is administered alone or in combination with α/β-IFN. […] On the contrary, pretreatment with a combination of murabutide and α/β-interferon induces significant protection with an incidence of mortality of only 33% (against 78% in the controls).
^1) The Swiss mice were tested intraperitoneally at time 0 with 18 mg
of Dgalactosamine + 50 ng of LPS. The mortality was measured after 48
^2) The compounds are administered intravenously either 3 hours befor

[3] = tested on: Soluble TNF receptor (STNF-R); experiment: Soluble TNF receptor (STNF-R) ELISA test in serum; format: in vivo, human; details: α-IFN 6 × 10^6 units and/or murabutide 100 μg/Kg
Experimental: These tests are carried out by an ELISA test in the serum of subjects having 6M units of IFN. At that dose, there is already an appreciable increase in the amount of STNF-R but the addition of murabutide permits a significant increase in the secretion of that mediator.

IL-6 [4] = experiment: In vitro incubation of blood of healthy volunteers: IL-6 secreted; format: cell-based, human
Experimental: as §4, §5, §6

IL-1 RA = experiment: In vitro incubation of blood of healthy volunteers: IL-1 RA secreted; format: cell-based, human
Experimental: as §4, §5, §6

circulating neutrophils = experiment: Neutrophil count after repeated administration to humans (days 1, 3 and 5); format: in vivo, human; details: α-IFN 2a 1 MU and/or murabutide 7 mg on days 1, 3 and 5
Experimental: Phase I/IIa tests were carried out on 3 groups of 6 healthy volunteers who received the following treatments on days 1, 3 and 5:
a) α-IFN 2a (1 MU) Roferon;
c) the association of the two immunostimulants.
By studying their influence on the number of circulating neutrophils.

G-CSF = G-CSF test on sera of healthy volunteers; format: in vivo, human; details: α-IFN 0, muramyl peptide 100 μg/Kg alone; for Amounts of G-CSF in serum after 0 hour: before administration
Experimental: as §1, §2, §3
These tests were carried out using the British Biotechnology Products Ltd. kit (see Table VI).

neopterine = experiment: Neopterine test (RIA) on sera of healthy volunteers; format: in vivo, human; details: for Influence on the amount of neopterine, in words: dose of 100 μg/kg alone; for Neopterine in serum: muramyl peptide 100 μg/Kg alone (α-IFN 0)
Experimental: as §1, §2, §3
The tests are carried out on sera taken at 0, 24 and 48 hours. An RIA (Radio Immuno Assay) kit (Behring Diagnostic, France) is used. The results are expressed in […], and the normal values vary from […].

KHT sarcoma cells = experiment: KHT sarcoma model in C3H/HeN mice, IL-2 with murametide; format: in vivo
Experimental: A murine model has been developed in C3H/HeN mice. KHT sarcoma cells are administered by the venous route. After 4 days and 6 days they are treated with:
c) the association of the two immunomodulators;
d) a fourth group is not treated.

[5] = +1 hr, Murabutide 15 mg/kg and/or α/β-IFN 1.25 × 10^6 IU/kg (alone: 11.25 × 10^6 IU/kg [sic])
[6] = Murabutide 15 mg/kg alone, -3 hrs
[7] = GM-CSF 1 ng/ml, without or with Murabutide 20 μg/ml
[8] = GM-CSF 5 ng/ml, without or with Murabutide 20 μg/ml

CCCCOC(=O)[C@@H](CCC(N)=O)NC(=O)[C@H](C)NC(=O)[C@@H](C)O[C@H]1[C@H](O)[C@@H](CO)OC(O)[C@@H]1NC(C)=O (stereo partly shown) [Murabutide, murabutide]
Neutrophil count % base line (neutrophils): 268 ± 43 % base line | Amounts of IL-6 in the serum (IL-6 [1]): 2.80 ± 1.60 pg/mL and 4.30 ± 1.80 pg/mL | Average amounts of cytokines secreted: sTNFR2 (sTNFR2; Murabutide 20 μg/ml alone): 1171 ± 478 pg/mL | Amounts of IL-1 RA in the serum [2]: 496 ± 326 pg/mL | Average % mortality (Swiss mice; [5]): 31% | Number of dead mice per total tested, Exp. 1 (Swiss mice; [5]): 2/9 | Number of dead mice per total tested, Exp. 2 (Swiss mice; [5]): 3/8 | Number of dead mice per total tested, Exp. 3 (Swiss mice; [5]): 3/9 | Average % mortality (Swiss mice; [6]): 74% | Number of dead mice per total tested, Exp. 1 (Swiss mice; [6]): 7/9 | Number of dead mice per total tested, Exp. 2 (Swiss mice; [6]): 7/8 | Number of dead mice per total tested, Exp. 3 (Swiss mice; [6]): 6/10 | Curative effect, in words (Swiss mice; administration 1 hour after the induction of endotoxic shock): significant curative effect | Prophylactic effect against the galactosamine/LPS mixture, in words (Swiss mice; pretreatment of the mice): does not give rise to a prophylactic effect | Amount of STNF-R in the serum, 0 hour [3]: 195 ± 28 pg/mL | Amount of STNF-R in the serum, 6 hours [3]: 616 ± 65 pg/mL | STNF-R net increase ([3]; 6 hours versus 0 hour): 31 ± 37 pg/mL | Average amounts of cytokines secreted: IL-6 (IL-6 [4]; Murabutide 20 μg/ml alone): 15.5 ± 11.3 pg/mL | Average amounts of cytokines secreted: IL-1 RA (IL-1 RA; Murabutide 20 μg/ml alone): 7.8 ± 6.0 ng/mL | Neutrophil count (% of the base line) after 3 hours (circulating neutrophils; day of treatment 1): 139 ± 26 % of the base line | Neutrophil count (% of the base line) after 6 hours (circulating neutrophils; day of treatment 1): 256 ± 51 % of the base line | Neutrophil count (% of the base line) after 12 hours (circulating neutrophils; day of treatment 1): 227 ± 46 % of the base line | Neutrophil count (% of the base line) after 3 hours (circulating neutrophils; day of treatment 3): 133 ± 24 % of the base line | Neutrophil count (% of the base line) after 6 hours (circulating neutrophils; day of treatment 3): 182 ± 27 % of the base line | Neutrophil count (% of the base line) after 12 hours (circulating neutrophils; day of treatment 3): 176 ± 59 % of the base line | Neutrophil count (% of the base line) after 3 hours (circulating neutrophils; day of treatment 5): 107 ± 19 % of the base line | Neutrophil count (% of the base line) after 6 hours (circulating neutrophils; day of treatment 5): 150 ± 28 % of the base line | Neutrophil count (% of the base line) after 12 hours (circulating neutrophils; day of treatment 5): 153 ± 23 % of the base line | Amounts of G-CSF in serum after 6 hours (G-CSF): 18 ± 9 | Amounts of G-CSF in serum after 0 hour (G-CSF): < 10 | Influence on the amount of neopterine, in words (neopterine): does not influence the amount significantly | Neopterine in serum (neopterine; T 0 hours): 6.37 ± 0.99 nM | Neopterine in serum (neopterine; T 24 hours): 7.33 ± 0.75 nM | Neopterine in serum (neopterine; T 48 hours): 8.22 ± 1.39 nM

COC(=O)[C@@H](CCC(N)=O)NC(=O)[C@H](C)NC(=O)C(C)O[C@H]1[C@H](O)[C@@H](CO)O[C@H](O)[C@@H]1NC(C)=O (stereo partly shown) [Murametide, murametide]
Neutrophil count % base line (neutrophils): 279 ± 67 % base line | Antitumour activity (KHT sarcoma cells; mice having pulmonary sarcoma metastases, preliminary data): no antitumour activity | Toxicity of IL-2 in mice having tumours (KHT sarcoma cells; mice having tumours): reduces the toxicity of IL-2 | Amounts of G-CSF in serum after 6 hours (G-CSF): 73 ± 115 | Amounts of G-CSF in serum after 0 hour (G-CSF): 61 ± 103 | Influence on the amount of neopterine, in words (neopterine): does not influence the amount significantly | Neopterine in serum (neopterine; T 0 hours): 5.43 ± 0.66 nM | Neopterine in serum (neopterine; T 24 hours): 7.14 ± 1 nM | Neopterine in serum (neopterine; T 48 hours): 7.39 ± 1.37 nM

GM-CSF: cytokine GM-CSF
Average amounts of cytokines secreted: sTNFR2 (sTNFR2; [7]): 1027 ± 624 pg/mL | Average amounts of cytokines secreted: sTNFR2 (sTNFR2; [8]): 1359 ± 350 pg/mL | Average amounts of cytokines secreted: IL-6 (IL-6 [4]; [7]): 2.0 ± 1.5 pg/mL | Average amounts of cytokines secreted: IL-6 (IL-6 [4]; [8]): 2.3 ± 2.1 pg/mL | Average amounts of cytokines secreted: IL-1 RA (IL-1 RA; [7]): 4.0 ± 1.4 ng/mL | Average amounts of cytokines secreted: IL-1 RA (IL-1 RA; [8]): 8.7 ± 10.0 ng/mL

Reference: patent publication US5932208A, “Compositions and methods for the use of such compositions in human therapeutics, characterized by the association of a muramyl peptide with a cytokine” (Vacsyn S.A., priority 1993, dated 1999)
